Results from patent US6420129B1, “Reagent composition for determination of electrolytes” (Toyo Boseki Kabushiki Kaisha, priority 1998, dated 2002).

Legend:
[1] = Visual observation of test solutions for deposition of crystals or white turbidity; type: physicochemical; set-up: key to turbidity (visual observation): +: turbidity found; −: no turbidity
Protocol: Among the reagents for the determination of calcium with the reagent formulations as described below, test enzyme solutions were prepared by the addition of glucosyl-α-cyclodextrin (G1αCD), maltosyl-α-cyclodextrin (G2αCD), glucosyl-p-cyclodextrin (G1βCD), or maltosyl-β-cyclodextrin(G2βCD) as a cyclodextrin derivative to have a concentration of 0, 1.5, 3, 6, or 12 mM. To the test enzyme solutions containing 3 mM glucosyl-β-cyclodextrin was further added independently N-acetylcysteine or reduced glutathione to have a concentration of 2.5, 5, 10, or 20 mM.
Both kinds of test solutions prepared by the above procedures were stored at 4° C. for 3 months. Visual observation of the test solutions was carried out just after the preparation and after the storage to examine whether there was found the deposition of crystals or the presence of white turbidity. The results are shown in table 1 for the visual observation just after the preparation and in Table 2 for the visual observation after the storage.
The test solutions were prepared in the same manner as described in Example 1, except that α-cyclodextrin (αCD) (1.5, 3, 6, or 12 mM), β-cyclodextrin (βCD) (1.5, 3, 6, or 12 mM), or γ-cyclodextrin (γCD) (1.5, 3, 6, or 12 mM) was independently added instead of the cyclodextrin derivatives and the SH group containing compounds in the above reagent formulations to have the respective concentrations as shown in Table 1. Both kinds of test solutions were stored at 4° C. for 3 months. Visual observation of the test solutions was carried out just after the preparation and after the storage to examine whether there was found the deposition of crystals or the presence of white turbidity. The results are shown in Table 1 for the visual observation just after the preparation and in Table 2 for the visual observation after the storage.

[2] = biological target: T1, Inactive α-amylase (from swine pancreas) (Sus scrofa, UniProt P00690); assay: Residual activity of α-amylase in test enzyme solutions after storage; type: biochemical; conditions: after storage at 35° C. for 7 days
T1 construct: α-amylase derived from the swine pancreas; from tissue; host or cells: swine pancreas
T1 sequence (P00690 16-511): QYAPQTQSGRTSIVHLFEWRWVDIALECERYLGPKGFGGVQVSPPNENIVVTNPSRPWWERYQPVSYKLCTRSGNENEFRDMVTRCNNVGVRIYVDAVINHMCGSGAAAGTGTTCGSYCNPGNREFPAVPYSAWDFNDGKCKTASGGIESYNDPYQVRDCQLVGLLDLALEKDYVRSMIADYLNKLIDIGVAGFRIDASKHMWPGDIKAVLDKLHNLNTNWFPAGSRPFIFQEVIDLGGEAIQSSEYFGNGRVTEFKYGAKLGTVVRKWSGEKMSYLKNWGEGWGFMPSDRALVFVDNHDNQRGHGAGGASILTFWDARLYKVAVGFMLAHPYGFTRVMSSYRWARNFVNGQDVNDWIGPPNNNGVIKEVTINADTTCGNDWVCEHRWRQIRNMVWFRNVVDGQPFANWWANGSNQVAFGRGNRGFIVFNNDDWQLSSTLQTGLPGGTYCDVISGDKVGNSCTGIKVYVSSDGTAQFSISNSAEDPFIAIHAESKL
Protocol: [table] In the test enzyme solutions of the reagents for the determination of calcium with the reagent formulations as described above in Example 1, glucosyl-α-cyclodextrin, maltosyl-α-cyclodextrin, glucosyl-β-cyclodextrin, or maltosyl-β-cyclodextrin was independently added as a cyclodextrin derivative at 12 mM. […] Instead of the cyclodextrin derivatives and the SH group containing compounds in the reagent formulations as described above in Example 1, glucose (100 mM), maltose (50 mM), maltotriose (30 mM), α-cyclodextrin (1.5 mM), β-cyclodextrin (1.5 mM), γ-cyclodextrin (1.5 mM), N-acetylcysteine (20 mM), or reduced glutathione (20 mM) was independently added to have the respective concentrations as shown in Table 3.

[3] = biological target: T1, Inactive α-amylase (from swine pancreas); assay: Relative sensitivity in determination of calcium with 10 mg/dl calcium standard solution; type: biochemical; conditions: just after the preparation, 10 mg/dl calcium standard
Protocol: [table] In the test enzyme solutions of the reagents for the determination of calcium with the reagent formulations as described above in Example 1, glucosyl-α-cyclodextrin, maltosyl-α-cyclodextrin, glucosyl-β-cyclodextrin, or maltosyl-β-cyclodextrin was independently added as a cyclodextrin derivative at 0, 1.5, 3, 6, or 12 mM. To the test enzyme solutions containing 3 mM glucosyl-β-cyclodextrin was further added independently N-acetylcysteine or reduced glutathione at 2.5, 5, 10, or 20 mM, and the determination of calcium ions with a calcium standard solution was carried out as described below. According to the method as described below, the determination of the amount of calcium was carried out for test solutions just after the preparation with 10 mg/dl calcium standard solution as a sample, and the relative sensitivity (%) was determined under the respective reagent conditions when the sensitivity in the case of no addition of cyclodextrin derivatives was taken as 100%. B. Method for the Determination of the Amount of Calcium To 5.8 μl of a sample was added 180 μl of a test enzyme solution, and the mixture was pre-warmed for 5 minutes, to which 90 μl of a test substrate solution was further added to make the reaction start. […] The measuring apparatus used was HITACHI Automatic Analyzer model 7170. The measurement wavelength was 405 nm for the principal wavelength and 546 nm for the second wavelength. The measurement was carried out at 37° C. […] The test solutions thus prepared were used for the determination of the calcium standard solution in the same manner as described in Example 3.

[4] = after storage at 4° C. for 3 months, agent added 1.5 mM
[5] = after storage at 4° C. for 3 months, agent added 3 mM
[6] = after storage at 4° C. for 3 months, agent added 6 mM
[7] = after storage at 4° C. for 3 months, agent added 12 mM
[8] = just after the preparation, agent added 1.5 mM
[9] = just after the preparation, agent added 3 mM
[10] = just after the preparation, agent added 6 mM
[11] = just after the preparation, agent added 12 mM
[12] = after the storage at 4° C. for 3 months, at 3 mM
[13] = just after the preparation, at 6 mM

| SMILES | turbidity (visual observation) [1, 4] | turbidity (visual observation) [1, 5] | turbidity (visual observation) [1, 6] | turbidity (visual observation) [1, 7] | turbidity (visual observation) [1, 8] | turbidity (visual observation) [1, 9] | turbidity (visual observation) [1, 10] | turbidity (visual observation) [1, 11] | Residual activity (%) ([2]; agent 12 mM) | Relative sensitivity (%) when sensitivity in case of no addition is taken as 100% ([3]; agent 1.5 mM) | Relative sensitivity (%) when sensitivity in case of no addition is taken as 100% ([3]; agent 3 mM) | Relative sensitivity (%) when sensitivity in case of no addition is taken as 100% ([3]; agent 6 mM) | Relative sensitivity (%) when sensitivity in case of no addition is taken as 100% ([3]; agent 12 mM) | Residual activity (%) ([2]; agent 20 mM) | remaining activity at 20000 µM ([2]; agent 20 mM) | turbidity of test enzyme solution (in words) [1, 12] | turbidity of test enzyme solution (in words) [1, 13] | Residual activity (%) ([2]; agent 1.5 mM) |
| --- | --- | --- | --- | --- | --- | --- | --- | --- | --- | --- | --- | --- | --- | --- | --- | --- | --- | --- |
| OCC1OC(OCC2OC3OC4C(CO)OC(OC5C(CO)OC(OC6C(CO)OC(OC7C(CO)OC(OC8C(CO)OC(OC2C(O)C3O)C(O)C8O)C(O)C7O)C(O)C6O)C(O)C5O)C(O)C4O)C(O)C(O)C1O (stereo not drawn) [G1αCD, glucosyl-α-cyclodextrin] | − | − | − | − | − | − | − | − | 80.4% | 112.8% | 120.2% | 122.3% | 118.9% |  |  |  |  |  |
| OCC1OC(OC2C(CO)OC(OCC3OC4OC5C(CO)OC(OC6C(CO)OC(OC7C(CO)OC(OC8C(CO)OC(OC9C(CO)OC(OC3C(O)C4O)C(O)C9O)C(O)C8O)C(O)C7O)C(O)C6O)C(O)C5O)C(O)C2O)C(O)C(O)C1O (stereo not drawn) [G2αCD, maltosyl-α-cyclodextrin] | − | − | − | − | − | − | − | − | 82.3% | 112.5% | 123.0% | 119.4% | 122.8% |  |  |  |  |  |
| OCC1OC(OC2C(CO)OC(OCC3OC4OC5C(CO)OC(OC6C(CO)OC(OC7C(CO)OC(OC8C(CO)OC(OC9C(CO)OC(OC%10C(CO)OC(OC3C(O)C4O)C(O)C%10O)C(O)C9O)C(O)C8O)C(O)C7O)C(O)C6O)C(O)C5O)C(O)C2O)C(O)C(O)C1O (stereo not drawn) [G2βCD, maltosyl-β-cyclodextrin] | − | − | − | − | − | − | − | − | 93.0% | 122.8% | 120.7% | 120.2% | 123.0% |  |  |  |  |  |
| N[C@@H](CCC(=O)N[C@@H](CS)C(=O)NCC(=O)O)C(=O)O [GSH, reduced glutathione] |  |  |  |  |  |  |  |  |  |  |  |  |  | 75.4% |  |  |  |  |
| CC(=O)N[C@@H](CS)C(=O)O [NAC, N-acetylcysteine] |  |  |  |  |  |  |  |  |  |  |  |  |  |  | 71.2% |  |  |  |
| OC[C@H]1O[C@@H]2O[C@H]3[C@H](O)[C@@H](O)[C@@H](O[C@H]4[C@H](O)[C@@H](O)[C@@H](O[C@H]5[C@H](O)[C@@H](O)[C@@H](O[C@H]6[C@H](O)[C@@H](O)[C@@H](O[C@H]7[C@H](O)[C@@H](O)[C@@H](O[C@H]1[C@H](O)[C@H]2O)O[C@@H]7CO)O[C@@H]6CO)O[C@@H]5CO)O[C@@H]4CO)O[C@@H]3CO [αCD, α-cyclodextrin, reference compound] | − | − | + | + | − | − | + | + |  |  |  |  |  |  |  | became turbid | had already become turbid | 70.5% |
| OC[C@H]1O[C@@H]2O[C@H]3[C@H](O)[C@@H](O)[C@@H](O[C@H]4[C@H](O)[C@@H](O)[C@@H](O[C@H]5[C@H](O)[C@@H](O)[C@@H](O[C@H]6[C@H](O)[C@@H](O)[C@@H](O[C@H]7[C@H](O)[C@@H](O)[C@@H](O[C@H]8[C@H](O)[C@@H](O)[C@@H](O[C@H]9[C@H](O)[C@@H](O)[C@@H](O[C@H]1[C@H](O)[C@H]2O)O[C@@H]9CO)O[C@@H]8CO)O[C@@H]7CO)O[C@@H]6CO)O[C@@H]5CO)O[C@@H]4CO)O[C@@H]3CO [γCD, γ-cyclodextrin, reference compound] | − | − | + | + | − | − | + | + |  |  |  |  |  |  |  | became turbid | had already become turbid | 74.6% |
